{"source": "patent US20240218327A1", "about": "“METHOD FOR QUICKLY AND EFFICIENTLY DIFFERENTIATING FUNCTIONAL GLIAL CELLS” (priority 2020, published 2024)", "key": {"NFIB-induced astrocytes [1]": {"test_system": "NFIB-induced astrocytes", "experiment": "Calcium transient assay (Fluo-4 calcium imaging)", "assay_type": "cell-based, human", "method": "To confirm whether the cells acquire the ability to change intracellular calcium concentration, gene set enrichment analysis (GSEA) was employed to validate the expression pattern of genes related to this specific function. This analysis involved comparing the ranked gene signature of day 0 cells versus day 14 cells, with genes related to calcium-mediated signaling (GO:0019722). […] Calcium imaging was conducted on cells on days 7 and 14 using Fluo-4, a calcium indicator, and the intracellular calcium transients between two time points were compared. For calcium imaging, the differentiated astrocytes were prepared on 12 mm coverslips. After replacing the cell culture medium with Hank's Balanced Salt Solution (HBSS, without calcium or magnesium) (Thermo Fisher Scientific), differentiated astrocytes were incubated with 5 μM Fluo-4 AM (Thermo Fisher Scientific) at 37° C. for 30 minutes and then washed twice with the HBSS solution before calcium imaging. Thereafter, intracellular calcium levels were analyzed using the Fluo-4 AM fluorescence dye detection method, employing a confocal microscope (Fluoview FV1000, Olympus). For this purpose, intensity images of 535 nm wavelength were captured at 488 nm excitation wavelength at a rate of one frame per 2 seconds. Intracellular calcium levels were expressed as a fluorescence ratio (F/FO), calculated as changes in the fluorescence intensity (F) after treatments with 30 μM ATP or 100 μM glutamate, compared to the initial fluorescence intensity (FO) in the resting state."}, "hPSC-NPCs": {"test_system": "hPSC-NPCs", "text": "FIG. 8A illustrates clustering and scaled expression patterns for differentially expressed genes (DEGs) during the differentiation process using NFIB. […] FIG. 8E and FIG. 8F quantify the percentage of cells positive for each marker on day 14 of differentiation. […] Data is presented as the mean #s.e.m. (n=3) (* p<0.05, ** p<0.01, *** p<0.001)."}, "NFIB-induced astrocytes [2]": {"test_system": "NFIB-induced astrocytes", "experiment": "Glutamate uptake analysis", "assay_type": "cell-based, human", "details": "100 µM of glutamate; after 3 hours; day 7 of differentiation; n=6", "text": "Uptake of excitatory neurotransmitters such as glutamate is another critical function of the astrocytes in the nervous system. This is because excessive glutamate concentration results in excitotoxic damage to the nervous tissue, potentially causing neurodegeneration. As there was a gradual upregulation of the neurotransmitter recycling protein, GLUL, in due course of gene expression (FIG. 5C, indicated by a red box with an asterisk), the ability of the NFIB-induced astrocytes to take up glutamate was assessed throughout differentiation to determine whether the ability improves. The astrocytes were exposed to 100 µM of glutamate, and the concentration of glutamate remaining in the medium was measured after 3 hours on day 7 and day 14. […] This increased uptake correlates well with the gradual increment of various genes related to neurotransmitter uptake (GO: 0001504), including SCL1A3 (a gene encoding excitatory amino acid transporter 1, also known as GLAST) and ARL6IP5 (a gene encoding glutamate transporter EEAC1-interacting protein)."}}, "data": [{"molecule": "Nc1ncnc2c1ncn2[C@@H]1O[C@H](COP(=O)(O)OP(=O)(O)OP(=O)(O)O)[C@@H](O)[C@H]1O", "note": "[ATP]", "values": [{"measurement": "cells with amplitude of calcium transients (F/FO) less than 3, among total cells", "setting": "NFIB-induced astrocytes [1]; 30 μM ATP, day 7 of differentiation, n=70", "result": 84.3, "unit": "%"}, {"measurement": "amplitude of calcium transients, fluorescence ratio", "setting": "NFIB-induced astrocytes [1]; 30 μM ATP, day 14 of differentiation, all the cells tested, n=80", "result": "≥ 3", "unit": "F/FO"}, {"measurement": "duration of elevated intracellular calcium level", "setting": "NFIB-induced astrocytes [1]; 30 μM ATP, regardless of the differentiation period (day 7 and day 14)", "result": "≥ 50", "unit": "s"}]}, {"molecule": "N#CC(=C(/N)Sc1ccccc1N)/C(C#N)=C(\\N)Sc1ccccc1N", "note": "[U0126]", "values": [{"measurement": "cell death", "setting": "hPSC-NPCs; 20 μM", "result": "did not induce significant cell death"}, {"measurement": "cell proliferation", "setting": "hPSC-NPCs; 20 μM", "result": "tended to slightly decrease cell proliferation"}, {"measurement": "GFAP-positive cells (astrocytes) in total cells", "setting": "hPSC-NPCs; 20 μM, Treatment Condition 3: two days from day 12 to day 14 of differentiation", "result": 26.88, "unit": "%"}, {"measurement": "number of SOX1-positive cells", "setting": "hPSC-NPCs; 20 μM, among treatment groups, day 14", "result": "not significantly different among the groups"}, {"measurement": "morphology of GFAP-positive cells", "setting": "hPSC-NPCs; 20 μM, compared with vehicle-treated group, correlated with exposure time", "result": "small cell body with fewer short processes"}, {"measurement": "number of GFAP-positive cells", "setting": "hPSC-NPCs; 20 μM, prolonged treatment (Treatment Condition 1 or 2), day 14", "result": "significantly reduced the number of GFAP-positive cells"}, {"measurement": "astrocyte differentiation (fluorescence images for GFAP and SOX1)", "setting": "hPSC-NPCs; pharmacological inhibition of the MAPK signaling pathway, FIG. 8D", "result": "robust suppression of astrocyte differentiation"}]}, {"molecule": "glutamate", "values": [{"measurement": "duration of asynchronous calcium oscillations", "setting": "NFIB-induced astrocytes [1]; 100 μM glutamate, day 7 of differentiation", "result": "less than 100 seconds"}, {"measurement": "average amplitude of calcium response", "setting": "NFIB-induced astrocytes [1]; 100 μM glutamate, day 7 of differentiation, n=19", "result": "4.92±0.32", "unit": "F/FO"}, {"measurement": "cells with amplitudes greater than 10", "setting": "NFIB-induced astrocytes [1]; 100 μM glutamate, day 14 of differentiation", "result": 32.4, "unit": "%"}, {"measurement": "amplitude of intracellular calcium peaks", "setting": "NFIB-induced astrocytes [1]; 100 μM glutamate, day 14 of differentiation, n=26", "result": "9.63±1.07", "unit": "F/FO"}, {"measurement": "glutamate uptake", "setting": "NFIB-induced astrocytes [2]", "result": "12.34±1.17", "unit": "%"}]}]}
